Data as given in publication PMC2634962, “Poisoning Pyridoxal 5-Phosphate-Dependent Enzymes: A New Strategy to Target the Malaria Parasite Plasmodium falciparum” (PLoS ONE, 2009).

What was measured:
[1] = target: T1, PfPdxK (pyridoxine/pyridoxal kinase) (Plasmodium falciparum, UniProt C6KT01); test: kinase assay with [γ-33P]-ATP, recombinant purified PfPdxK, specific activity; type: biochemical
T1 construct: gene PF3D7_0616000; recombinant, strep tag

[2] = target: T2, PfODC (bifunctional P. falciparum AdoMetDC/ODC) (Plasmodium falciparum, UniProt Q8IJ77); test: […]CO2 release from […]-L-ornithine by recombinant PfODC/AdoMetDC with […] PLP; type: biochemical; conditions: read-out: Inhibition of PfODC activity IC50-value [μM] ^a)
T2 construct: gene PF3D7_1033100; recombinant bifunctional P. falciparum AdoMetDC/ODC, strep tag
T2 sequence (Q8IJ77 1-72): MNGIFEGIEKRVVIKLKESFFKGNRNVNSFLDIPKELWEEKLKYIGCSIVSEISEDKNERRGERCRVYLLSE
T2 sequence (Q8IJ77 73-1434): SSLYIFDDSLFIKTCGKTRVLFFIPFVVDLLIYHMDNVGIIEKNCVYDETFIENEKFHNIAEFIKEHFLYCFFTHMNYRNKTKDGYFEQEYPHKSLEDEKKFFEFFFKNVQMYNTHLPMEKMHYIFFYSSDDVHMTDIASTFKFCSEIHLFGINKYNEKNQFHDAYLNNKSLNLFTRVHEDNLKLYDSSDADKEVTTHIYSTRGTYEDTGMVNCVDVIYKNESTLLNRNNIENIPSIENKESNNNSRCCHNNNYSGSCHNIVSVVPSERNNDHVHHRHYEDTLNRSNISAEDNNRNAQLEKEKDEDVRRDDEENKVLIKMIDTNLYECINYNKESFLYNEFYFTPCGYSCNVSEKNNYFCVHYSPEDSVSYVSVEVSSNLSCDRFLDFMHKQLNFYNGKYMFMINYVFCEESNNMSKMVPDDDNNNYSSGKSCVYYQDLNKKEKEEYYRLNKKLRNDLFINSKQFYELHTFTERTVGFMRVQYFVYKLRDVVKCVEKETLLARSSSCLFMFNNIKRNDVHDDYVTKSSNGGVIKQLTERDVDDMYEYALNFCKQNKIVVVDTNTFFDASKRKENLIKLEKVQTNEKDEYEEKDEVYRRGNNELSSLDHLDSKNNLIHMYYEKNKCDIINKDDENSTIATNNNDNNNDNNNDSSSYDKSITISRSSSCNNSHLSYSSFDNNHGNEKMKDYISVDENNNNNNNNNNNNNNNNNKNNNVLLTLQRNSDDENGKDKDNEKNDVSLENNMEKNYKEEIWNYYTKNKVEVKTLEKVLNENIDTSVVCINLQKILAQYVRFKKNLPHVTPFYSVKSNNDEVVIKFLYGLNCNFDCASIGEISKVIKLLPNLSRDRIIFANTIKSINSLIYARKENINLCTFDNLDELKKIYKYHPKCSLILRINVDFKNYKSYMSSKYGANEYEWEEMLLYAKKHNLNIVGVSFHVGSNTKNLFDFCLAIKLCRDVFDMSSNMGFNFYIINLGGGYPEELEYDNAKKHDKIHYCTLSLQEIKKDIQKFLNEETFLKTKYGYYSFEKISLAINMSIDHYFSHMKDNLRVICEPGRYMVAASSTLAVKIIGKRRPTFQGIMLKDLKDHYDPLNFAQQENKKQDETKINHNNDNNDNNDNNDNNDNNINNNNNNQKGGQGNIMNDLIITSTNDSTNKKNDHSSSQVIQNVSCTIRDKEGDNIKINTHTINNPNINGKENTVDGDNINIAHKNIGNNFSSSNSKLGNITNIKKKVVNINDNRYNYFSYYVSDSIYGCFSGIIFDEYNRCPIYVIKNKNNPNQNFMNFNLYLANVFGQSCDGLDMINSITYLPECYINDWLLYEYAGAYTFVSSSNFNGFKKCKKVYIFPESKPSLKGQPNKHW

T1 sequence (C6KT01 entry or part of it): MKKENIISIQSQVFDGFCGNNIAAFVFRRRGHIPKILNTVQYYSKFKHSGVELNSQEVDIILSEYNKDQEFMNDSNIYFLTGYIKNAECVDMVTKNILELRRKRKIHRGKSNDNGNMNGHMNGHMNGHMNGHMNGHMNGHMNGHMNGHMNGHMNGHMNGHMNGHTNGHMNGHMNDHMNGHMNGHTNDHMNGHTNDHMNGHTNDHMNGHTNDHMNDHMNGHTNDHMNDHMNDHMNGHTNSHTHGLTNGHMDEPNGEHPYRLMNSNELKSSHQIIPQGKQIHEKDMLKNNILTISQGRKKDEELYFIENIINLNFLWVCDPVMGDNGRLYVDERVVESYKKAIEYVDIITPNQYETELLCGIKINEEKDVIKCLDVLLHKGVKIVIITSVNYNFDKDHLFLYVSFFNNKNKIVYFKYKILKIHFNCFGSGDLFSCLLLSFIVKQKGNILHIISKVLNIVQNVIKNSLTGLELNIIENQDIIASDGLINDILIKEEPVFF

| IC50 [2] [µM] | SMILES | Specific activity of PfPdxK (nmol min^-1 mg^-1) ^a) [1] [nmol/min/mg] |
| --- | --- | --- |
|  | COC(=O)C(Cc1c[nH]cn1)NCc1c(CO)cnc(C)c1O (centres unmarked) [PHME] | 64 ± 4 |
| 58 ± 11 | COC(=O)C(Cc1c[nH]cn1)NCc1c(COP(=O)(O)O)cnc(C)c1O (centres unmarked) [PPHME] |  |
| 64 ± 13 | COC(=O)C(Cc1c[nH]c2ccccc12)NCc1c(COP(=O)(O)O)cnc(C)c1O (centres unmarked) [PPT5] |  |
|  | COC(=O)[C@@H]1Cc2c([nH]c3ccccc23)[C@H](c2c(CO)cnc(C)c2O)N1 [PT3] | 38 ± 4 |
|  | COC(=O)C(Cc1c[nH]c2ccccc12)NCc1c(CO)cnc(C)c1O (centres unmarked) [PT5] | 20 ± 2 |
